SMILES strings stand for the structures. Counter-ions that a name gives are not always drawn. Some results are limits rather than exact numbers.

In test [1] the test system is cultured human mast cells (CHMC). Description: CHMC low cell density IgE activation: tryptase assay. The format is cell-based. The settings on record: IgE activation. In a few lines: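 Low-density CHMC, 1000-1500 cells/well in MT; 1 hr 37 °C; anti-IgE challenge 30 min 37 °C; supernatant tryptase via fluorogenic substrate, 30 min RT.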
The test system is the same in test [2]. Description: CHMC low cell density ionomycin activation: tryptase assay. The format is cell-based. The note with it: read-out: LD Tryptase, CHMC, Iono, 3 pt.
Where [3] appears, read: Homo sapiens, Mast cell, low cell density CHMC, tryptase, 3 pt, read-out: LD Tryptase, CHMC, IgE, 3 pt.
Where [4] appears, read: Homo sapiens, Mast cell, low cell density CHMC, tryptase, 3 pt.
Where [5] appears, read: Homo sapiens, Mast cell, low cell density, 3 pt, read-out: LD Tryptase, CHMC, IgE, 3 pt.
Setting [6] is: Homo sapiens, Mast cell, low cell density, 8 pt, read-out: LD Tryptase, CHMC, IgE, 8 pt.
Setting [7] is: Homo sapiens, Mast cell, low cell density, 3 pt.
Where [8] appears, read: low cell density CHMC, tryptase release, 3 point, read-out: LD Tryptase, CHMC, IgE, 3 pt.
The mark [9] stands for this setting: low cell density CHMC, tryptase release, 8 point, read-out: LD Tryptase, CHMC, IgE, 8 pt.
[10] abbreviates: low cell density CHMC, tryptase release, 3 point.
[11] abbreviates: Homo sapiens, Mast cell, low cell density CHMC, tryptase release, 3 point, read-out: LD Tryptase, CHMC, IgE, 3 pt.
Setting [12] is: Homo sapiens, Mast cell, low cell density CHMC, tryptase release, 8 point, read-out: LD Tryptase, CHMC, IgE, 8 pt.
The mark [13] stands for this setting: Homo sapiens, Mast cell, low cell density CHMC, tryptase release, 3 point.
Where [14] appears, read: low cell density CHMC, tryptase readout, 3 pt, read-out: LD Tryptase, CHMC, IgE, 3 pt.
[15] abbreviates: low cell density CHMC, tryptase readout, 8 pt, read-out: LD Tryptase, CHMC, IgE, 8 pt.
Where [16] appears, read: low cell density CHMC, tryptase readout, 3 pt.
[17] abbreviates: Homo sapiens, Mast cell, low cell density CHMC, tryptase readout, 3 pt, read-out: LD Tryptase, CHMC, IgE, 3 pt.
Where [18] appears, read: Homo sapiens, Mast cell, low cell density CHMC, tryptase readout, 8 pt, read-out: LD Tryptase, CHMC, IgE, 8 pt.
The mark [19] stands for this setting: Homo sapiens, Mast cell, low cell density CHMC, tryptase readout, 3 pt.

`Fc1cnc(Nc2cccc(NC3=NCCN3)c2)nc1NC1CCCC1` [Compound 1173, N4-Cyclopentyl-5-fluoro-N2-[3-(N-2-imidazolin-2-yl)aminophenyl]-2,4-pyrimidinediamine]: the IC50 in test [1] (setting [3]) and in test [2] (setting [4]) was more than 10 µM in each case.

As for `CC(=O)N1CCN(c2ccc(Nc3ncc(F)c(N[C@H]4CCN(Cc5ccccc5)C4)n3)cc2)CC1` [Compound 1181, (S)-N2-[4-(4-Acetylpiperazino)phenyl]-N4-(1-benzylpyrrolidin-3-yl)-5-fluoro-2,4-pyrimidinediamine], the IC50 is less than 10 µM in test [1] (setting [3]) and more than 10 µM in test [2] (setting [4]).

On to `CN(c1ccc2c(c1)OCCO2)c1nc(Nc2cccc(-c3ncco3)c2)ncc1F` [Compound 412], for which the IC50 in test [1] (setting [3]) and in test [2] (setting [4]) was less than 10 µM throughout.

With `COc1c(C)cc(Nc2ncc(F)c(Nc3ccc4c(n3)NC(=O)C(C)(C)O4)n2)cc1C` [Compound 997, N2-(3,5-Dimethyl-4-methoxyphenyl)-N4-(2,2-dimethyl-3-oxo-4H-5-pyrid[1,4]oxazin-6-yl)-5-fluoro-2,4-pyrimidinediamine], the IC50 is less than 10 µM in test [1] (setting [5]), less than 10 µM in test [1] (setting [6]) and more than 10 µM in test [2] (setting [7]).

For the molecule `Cn1ncc2ccc(Nc3ncc(F)c(Nc4ccc5c(c4)NC(=O)C(C)(C)O5)n3)cc21` [Compound 766, N4-(2,2-Dimethyl-3-oxo-4H-benz[1,4]oxazin-6-yl)-5-fluoro-N2-(1-methylindazol-6-yl)-2,4-pyrimidinediamine DL-Camphor-1-sulfonic Acid Salt], the IC50 in test [1] (low cell density CHMC, tryptase, 3 pt, read-out: LD Tryptase, CHMC, IgE, 3 pt) is less than 10 µM; in test [1] (low cell density CHMC, tryptase, 8 pt, read-out: LD Tryptase, CHMC, IgE, 8 pt), less than 10 µM; in test [2] (low cell density CHMC, tryptase, 3 pt), more than 10 µM.

Turning to `COC(=O)Cn1ccc2ccc(Nc3ncc(F)c(Nc4ccc5c(c4)NC(=O)C(C)(C)O5)n3)cc21` [Compound 639, N4-(2,2-Dimethyl-3-oxo-4H-benz[1,4]oxazin-6-yl)-5-fluoro-N2-[1-(methoxycarbonylmethylene)indol-6-yl]-2,4-pyrimidinediamine], the results for the IC50 in test [1] (setting [8]), in test [1] (setting [9]) and in test [2] (setting [10]) were less than 10 µM, less than 10 µM and more than 10 µM, respectively.

On to `COC(=O)Cn1ccc2cc(Nc3ncc(F)c(Nc4ccc5c(c4)NC(=O)C(C)(C)O5)n3)ccc21` [Compound 643, N4-(2,2-Dimethyl-3-oxo-4H-benz[1,4]oxazin-6-yl)-5-fluoro-N2-[1-(methoxycarbonylmethylene)indol-5-yl]-2,4-pyrimidinediamine], for which the IC50 in test [1] (setting [8]) was less than 10 µM; in test [1] (setting [9]), less than 10 µM; in test [2] (setting [10]) it was more than 10 µM.

As to `COc1cc(Nc2nc(Nc3ccc4cc[nH]c4c3)ncc2F)ccc1Cl` [Compound 630, N4-(4-Chloro-3-methoxyphenyl)-5-fluoro-N2-(indol-6-yl)-2,4-pyrimidinediamine], the IC50 was less than 10 µM in test [1] (setting [11]), less than 10 µM in test [1] (setting [12]) and more than 10 µM in test [2] (setting [13]).

Take `COc1ccc(N(C)c2nc(Cl)ncc2F)c(OC)n1` [Compound 490]: the IC50 in test [1] (setting [5]) and in test [2] (setting [7]) was more than 10 µM in each case.

With `Cc1cc(Nc2ncc(F)c(Nc3ccc4c(c3)OCCO4)n2)cc(Cl)c1O` [Compound 995, N2-(3-Chloro-4-hydroxy-5-methylphenyl)-N4-(3,4-ethylenedioxyphenyl)-5-fluoro-2,4-pyrimidinediamine], the IC50 in test [1] (setting [5]), in test [1] (setting [6]) and in test [2] (setting [7]) was less than 10 µM each time.

For the molecule `CCn1ncc2ccc(Nc3ncc(F)c(Nc4ccc5c(n4)NC(=O)C(C)(C)O5)n3)cc21` [Compound 1049, N4-(2,2-Dimethyl-3-oxo-4H-5-pyrid[1,4]oxazin-6-yl)-N2-(1-ethylindazol-6-yl)-5-fluoro-2,4-pyrimidinediamine], the IC50 in test [1] (setting [14]) was less than 10 µM; in test [1] (setting [15]), less than 10 µM; in test [2] (setting [16]), more than 10 µM.

Regarding `CNC(=O)c1ccc(Nc2nc(Nc3cc(OC)cc(OC)c3)ncc2F)cc1Cl` [Compound 481], the IC50 was less than 10 µM in test [1] (setting [5]), less than 10 µM in test [1] (setting [6]) and more than 10 µM in test [2] (setting [7]).

Consider `COc1ccc(N(C)c2nc(Nc3ccc4cc[nH]c4c3)ncc2F)cc1OC` [Compound 436, N4-(3,4-Dimethoxyphenyl)-5-fluoro-N2-(indol-6-yl)-N4-methyl-2,4-pyrimidinediamine], for which the values for the IC50 in test [1] (setting [3]) and in test [2] (setting [4]) were less than 10 µM and more than 10 µM, respectively.

Regarding `COc1ccc(Nc2nc(Nc3cc(-c4ncco4)cc(C(F)(F)F)c3)ncc2F)cc1OC` [Compound 520, N4-(3,4-Dimethoxyphenyl)-5-fluoro-N2-[3-(oxazol-2-yl)-5-trifluoromethylphenyl]-2,4-pyrimidinediamine], the IC50 in test [1] (setting [5]) was less than 10 µM; in test [2] (setting [7]), more than 10 µM.

Take `COc1cc(N(C)c2nc(Nc3ccc(-c4cocn4)cc3)ncc2F)ccc1Cl` [Compound 606, N4-(4-Chloro-3-methoxyphenyl)-5-fluoro-N4-methyl-N2-[4-(oxazol-4-yl)phenyl]-2,4-pyrimidinediamine]: the IC50 in test [1] (setting [11]), in test [1] (setting [12]) and in test [2] (setting [13]) was less than 10 µM each time.

As for `COC(=O)COc1ccc(Nc2nc(Nc3cc(OC)cc(OC)c3)ncc2F)cc1Cl` [Compound 615, N4-[3-Chloro-4-(methoxycarbonyl)methyleneoxyphenyl]-N2-(3,5-dimethoxyphenyl)-5-fluoro-2,4-pyrimidinediamine], the IC50 in test [1] (setting [8]), in test [1] (setting [9]) and in test [2] (setting [10]) was less than 10 µM in each case.

Take `CC1(C)Oc2ccc(Nc3nc(Nc4ccc(-c5cnco5)cc4)ncc3F)cc2NC1=O` [Compound 1020, N4-(2,2-Dimethyl-3-oxo-4H-benz[1,4]oxazin-6-yl)-5-fluoro-N2-[4-(oxazol-5-yl)phenyl]-2,4-pyrimidinediamine]: the IC50 in test [1] (setting [17]) is less than 10 µM; in test [1] (setting [18]), less than 10 µM; in test [2] (setting [19]), more than 10 µM.

In the case of `CNC(=O)COc1cccc(Nc2ncc(F)c(N(C)c3ccc(OC)c(Cl)c3)n2)c1` [Compound 580, N4-(3-Chloro-4-methoxyphenyl)-N2-[3-(N-methylamino)carbonylmethyleneoxyphenyl]-5-fluoro-N4-methyl-2,4-pyrimidinediamine], the IC50 in test [1] (setting [8]) is less than 10 µM; in test [2] (setting [10]), more than 10 µM.

Turning to `COC(=O)c1cc(Nc2ncc(F)c(Nc3ccc4c(c3)OCCO4)n2)cc(-c2ncco2)c1` [Compound 516, N4-(3,4-Ethylenedioxyphenyl)-5-fluoro-N2-[5-methoxycarbonyl-3-(oxazol-2-yl)phenyl]-2,4-pyrimidinediamine], the IC50 in test [1] (setting [5]) and in test [2] (setting [7]) was more than 10 µM each time.

On to `O=C1COc2cc(Nc3nc(Nc4ccc(-c5ncco5)cc4)ncc3F)ccc2N1` [Compound 241], for which the IC50 was more than 10 µM in test [1] (Homo sapiens, Mast cell, low cell density CHMC, tryptase release, 3 pt, read-out: LD Tryptase, CHMC, IgE, 3 pt) and more than 10 µM in test [2] (Homo sapiens, Mast cell, low cell density CHMC, tryptase release, 3 pt).

As to `COc1cc(Nc2ncc(F)c(N(C)c3cc(OC)cc(OC)c3)n2)cc(OC)c1` [Compound 400], the IC50 in test [1] (setting [3]) is less than 10 µM; in test [2] (setting [4]) it was more than 10 µM.

On to `CC(=O)N1CCN(c2cccc(Nc3ncc(F)c(Nc4cc(C(C)(C)C)[nH]n4)n3)c2)CC1` [Compound 1091, N2-[3-(4-Acetylpiperazino)phenyl]-N4-(5-tert-butyl-1H-pyrazol-3-yl)-5-fluoro-2,4-pyrimidinediamine], for which the IC50 in test [1] (setting [17]) was less than 10 µM; in test [1] (setting [18]), less than 10 µM; in test [2] (setting [19]), more than 10 µM.

`C[C@@H]1Oc2ccc(Nc3nc(Nc4cccc(-c5ncco5)c4)ncc3F)cc2NC1=O` [Compound 1282]: the IC50 in test [1] (setting [3]) was less than 10 µM; in test [1] (Homo sapiens, Mast cell, low cell density CHMC, tryptase, 8 pt, read-out: LD Tryptase, CHMC, IgE, 8 pt), less than 10 µM; in test [2] (setting [4]), more than 10 µM.

Turning to `COc1ccc(Nc2ncc(F)c(Nc3cccc(NC4=NCCN4)c3)n2)cc1F` [Compound 1094, 5-Fluoro-N2-(3-fluoro-4-methoxyphenyl)-N4-[3-(N-2-imidazolin-2-yl)aminophenyl]-2,4-pyrimidinediamine], the IC50 in test [1] (setting [17]) was less than 10 µM; in test [2] (setting [19]), more than 10 µM.

As for `CNC(=O)c1ccc(Nc2ncc(F)c(Nc3ccc4c(n3)NC(=O)C(C)(C)O4)n2)cc1Cl` [Compound 1054, N2-[3-Chloro-4-(N-methylamino)carbonylphenyl]-N4-(2,2-dimethyl-3-oxo-4H-5-pyrid[1,4]oxazin-6-yl)-5-fluoro-2,4-pyrimidinediamine], the IC50 is less than 10 µM in test [1] (setting [14]), less than 10 µM in test [1] (setting [15]) and more than 10 µM in test [2] (setting [16]).

Values taken from patent US20220073536A1 (Rigel Pharmaceuticals, Inc., priority 2003, published 2022).
